Test results reported in BindingDB's records for doi:10.1021/acsmedchemlett.7b00140 (Pfizer, 2017).

Biological target: Small conductance calcium-activated potassium channel protein 2, KCNN2 (Homo sapiens) (UniProt Q9H2S1)
Assay: Binding affinity to SK2 (unknown origin)

Small conductance calcium-activated potassium channel protein 2, KCNN2 (Homo sapiens), sequence (Q9H2S1 whole entry, looked up): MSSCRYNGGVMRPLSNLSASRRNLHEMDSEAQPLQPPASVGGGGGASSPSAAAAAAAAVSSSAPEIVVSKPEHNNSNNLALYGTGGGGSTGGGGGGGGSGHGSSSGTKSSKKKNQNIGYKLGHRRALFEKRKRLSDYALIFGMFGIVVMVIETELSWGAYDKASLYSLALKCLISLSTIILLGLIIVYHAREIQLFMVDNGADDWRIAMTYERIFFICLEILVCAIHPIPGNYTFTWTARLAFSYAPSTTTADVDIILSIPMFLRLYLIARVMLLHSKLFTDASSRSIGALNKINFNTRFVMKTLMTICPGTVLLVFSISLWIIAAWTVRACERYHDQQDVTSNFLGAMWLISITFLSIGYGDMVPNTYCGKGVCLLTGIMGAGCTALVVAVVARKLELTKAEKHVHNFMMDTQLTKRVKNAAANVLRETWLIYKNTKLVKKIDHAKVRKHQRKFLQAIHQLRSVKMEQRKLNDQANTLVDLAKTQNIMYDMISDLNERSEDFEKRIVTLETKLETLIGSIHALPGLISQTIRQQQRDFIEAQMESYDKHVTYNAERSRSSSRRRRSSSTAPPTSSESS

Row | EC50 [µM] | Structure (SMILES)
1 | > 10 | FC(F)(F)c1ccc2c(Nc3ccc(Cl)nc3)n[nH]c2c1
2 | > 10 | N#Cc1ccc(-c2n[nH]c3cc(OC(F)(F)F)ccc23)cc1
